Experimental data as given in patent US20080207705A1, “Heteroaryl-Imidazole Derivatives as Cannabinoid CB1 Receptor Antagonists” (Green Cross Corporation, priority 2007, published 2008).

molecular target: T1, rat CB-1 receptor (Rattus norvegicus, UniProt P20272); assay: rat CB-1 receptor binding protocol with [3H]CP-55940; conditions: [3H]CP-55940, brain tissue of SD rats, 30 °C for 60 min; read-out: IC50
T1 construct: The tissue obtained from the brain of SD rats was homogenized; from tissue; host or cells: brain of SD rats (membrane pellet of homogenate)
T1 sequence (P20272 whole entry): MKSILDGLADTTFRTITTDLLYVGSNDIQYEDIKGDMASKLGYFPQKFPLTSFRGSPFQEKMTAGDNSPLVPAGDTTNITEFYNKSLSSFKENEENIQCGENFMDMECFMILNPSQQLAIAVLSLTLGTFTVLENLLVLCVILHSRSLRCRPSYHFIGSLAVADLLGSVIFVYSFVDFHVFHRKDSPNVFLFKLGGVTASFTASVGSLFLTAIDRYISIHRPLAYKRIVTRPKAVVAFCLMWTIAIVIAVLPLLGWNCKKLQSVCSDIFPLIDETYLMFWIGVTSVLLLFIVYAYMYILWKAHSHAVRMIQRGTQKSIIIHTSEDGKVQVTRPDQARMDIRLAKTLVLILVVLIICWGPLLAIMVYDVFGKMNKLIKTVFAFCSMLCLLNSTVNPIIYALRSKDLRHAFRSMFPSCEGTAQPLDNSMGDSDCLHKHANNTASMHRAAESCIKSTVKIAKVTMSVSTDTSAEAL

Row | IC50 | Compound
1 | 0.00175 µM | FC(F)(F)C1(c2nnc(-c3nc(-c4ccccc4Cl)n(-c4ccc(Br)cc4)c3Cn3cncn3)s2)CCC1 [Example 170, 2-(5-((1H-1,2,4-Triazol-1-yl)methyl)-1-(4-bromophenyl)-2-(2-chlorophenyl)-1H-imidazol-4-yl)-5-(1-(trifluoromethyl)cyclobutyl)-1,3,4-thiadiazole]
2 | 0.0018 µM | Clc1ccc(C2(c3nnc(-c4nc(-c5ccccc5Cl)n(-c5ccc(Br)cc5)c4Cn4cncn4)s3)CC2)cc1 [Example 171, 2-(5-((1H-1,2,4-Triazol-1-yl)methyl)-1-(4-bromophenyl)-2-(2-chlorophenyl)-1H-imidazol-4-yl)-5-(1-(4-chlorophenyl)cyclopropyl)-1,3,4-thiadiazole]
3 | 0.0786 µM | Cc1c(-c2ncc(C3CCCCC3)o2)nc(-c2ccc(Cl)cc2Cl)n1-c1ccc(Cl)cc1 [Example 180, 2-(1-(4-Chlorophenyl)-2-(2,4-dichlorophenyl)-5-methyl-1H-imidazol-4-yl)-5-cyclohexyloxazole]
4 | 0.084 µM | CCc1cnc(-c2nc(-c3ccc(Cl)cc3Cl)n(-c3ccc(Cl)cc3)c2C)o1 [Example 181, 2-(1-(4-Chlorophenyl)-2-(2,4-dichlorophenyl)-5-methyl-1H-imidazol-4-yl)-5-ethyloxazole]
5 | 0.0116 µM | CCCCc1cnc(-c2nc(-c3ccc(Cl)cc3Cl)n(-c3ccc(Cl)cc3)c2C)o1 [Example 182, 5-Butyl-2-(1-(4-chlorophenyl)-2-(2,4-dichlorophenyl)-5-methyl-1H-imidazol-4-yl)oxazole]
6 | 0.0264 µM | Cc1c(-c2ncc(C(C)C)o2)nc(-c2ccc(Cl)cc2Cl)n1-c1ccc(Cl)cc1 [Example 183, 2-(1-(4-Chlorophenyl)-2-(2,4-dichlorophenyl)-5-methyl-1H-imidazol-4-yl)-5-isopropyloxazole]
7 | 0.0131 µM | Cc1c(-c2ncc(CC(C)C)o2)nc(-c2ccc(Cl)cc2Cl)n1-c1ccc(Cl)cc1 [Example 184, 2-(1-(4-Chlorophenyl)-2-(2,4-dichlorophenyl)-5-methyl-1H-imidazol-4-yl)-5-isobutyloxazole]
8 | 0.0169 µM | Cc1c(-c2ncc(C(C)(C)C)o2)nc(-c2ccc(Cl)cc2Cl)n1-c1ccc(Br)cc1 [Example 187, 2-(1-(4-Bromophenyl)-2-(2,4-dichlorophenyl)-5-methyl-1H-imidazol-4-yl)-5-tert-butyloxazole]
9 | 0.00898 µM | CCc1c(-c2ncc(C(C)(C)C)o2)nc(-c2ccc(Cl)cc2Cl)n1-c1ccc(Br)cc1 [Example 188, 2-(1-(4-Bromophenyl)-2-(2,4-dichlorophenyl)-5-ethyl-1H-imidazol-4-yl)-5-tert-butyloxazole]
10 | 0.0883 µM | Cc1c(-c2nc(C(C)(C)C)co2)nc(-c2ccc(Cl)cc2Cl)n1-c1ccc(Cl)cc1 [Example 189, 4-tert-Butyl-2-(1-(4-chlorophenyl)-2-(2,4-dichlorophenyl)-5-methyl-1H-imidazol-4-yl)oxazole]
11 | 0.119 µM | CCc1c(-c2nc(C(C)(C)C)co2)nc(-c2ccc(Cl)cc2Cl)n1-c1ccc(Cl)cc1 [Example 190, 4-tert-Butyl-2-(1-(4-chlorophenyl)-2-(2,4-dichlorophenyl)-5-ethyl-1H-imidazol-4-yl)oxazole]
12 | 0.03 µM | CCc1c(-c2nc(C(C)(C)C)co2)nc(-c2ccc(Cl)cc2Cl)n1-c1ccc(Br)cc1 [Example 191, 2-(1-(4-Bromophenyl)-2-(2,4-dichlorophenyl)-5-ethyl-1H-imidazol-4-yl)-4-tert-butyloxazole]
13 | 0.0779 µM | CCc1oc(-c2nc(-c3ccc(Cl)cc3Cl)n(-c3ccc(Cl)cc3)c2C)nc1C [Example 192, 2-(1-(4-Chlorophenyl)-2-(2,4-dichlorophenyl)-5-methyl-1H-imidazol-4-yl)-5-ethyl-4-methyloxazole]
14 | 0.0745 µM | Cc1c(-c2ncc(C3CCCCC3)s2)nc(-c2ccc(Cl)cc2Cl)n1-c1ccc(Cl)cc1 [Example 193, 2-(1-(4-Chlorophenyl)-2-(2,4-dichlorophenyl)-5-methyl-1H-imidazol-4-yl)-5-cyclohexylthiazole]
15 | 0.0702 µM | CCc1cnc(-c2nc(-c3ccc(Cl)cc3Cl)n(-c3ccc(Cl)cc3)c2C)s1 [Example 194, 2-(1-(4-Chlorophenyl)-2-(2,4-dichlorophenyl)-5-methyl-1H-imidazol-4-yl)-5-ethylthiazole]
16 | 0.0633 µM | CCCCc1cnc(-c2nc(-c3ccc(Cl)cc3Cl)n(-c3ccc(Cl)cc3)c2C)s1 [Example 195, 5-Butyl-2-(1-(4-chlorophenyl)-2-(2,4-dichlorophenyl)-5-methyl-1H-imidazol-4-yl)thiazole]
17 | 0.016 µM | Cc1c(-c2ncc(C(C)C)s2)nc(-c2ccc(Cl)cc2Cl)n1-c1ccc(Cl)cc1 [Example 196, 2-(1-(4-Chlorophenyl)-2-(2,4-dichlorophenyl)-5-methyl-1H-imidazol-4-yl)-5-isopropylthiazole]
18 | 0.0464 µM | Cc1c(-c2ncc(CC(C)C)s2)nc(-c2ccc(Cl)cc2Cl)n1-c1ccc(Cl)cc1 [Example 197, 2-(1-(4-Chlorophenyl)-2-(2,4-dichlorophenyl)-5-methyl-1H-imidazol-4-yl)-5-isobutylthiazole]
19 | 0.016 µM | Cc1c(-c2ncc(C(C)(C)C)s2)nc(-c2ccc(Cl)cc2Cl)n1-c1ccc(Br)cc1 [Example 200, 2-(1-(4-Bromophenyl)-2-(2,4-dichlorophenyl)-5-methyl-1H-imidazol-4-yl)-5-tert-butylthiazole]
20 | 0.0105 µM | CCc1c(-c2ncc(C(C)(C)C)s2)nc(-c2ccc(Cl)cc2Cl)n1-c1ccc(Br)cc1 [Example 201, 2-(1-(4-Bromophenyl)-2-(2,4-dichlorophenyl)-5-ethyl-1H-imidazol-4-yl)-5-tert-butylthiazole]
21 | 0.0902 µM | CCc1sc(-c2nc(-c3ccc(Cl)cc3Cl)n(-c3ccc(Cl)cc3)c2C)nc1C [Example 202, 2-(1-(4-Chlorophenyl)-2-(2,4-dichlorophenyl)-5-methyl-1H-imidazol-4-yl)-5-ethyl-4-methylthiazole]
